Results as given in patent US20100210682A1, “Repeated Dosing of TRPV1 Antagonists” (ABBOTT LABORATORIES, priority 2009, published 2010).

Tests used:
Assay type in all cases: in vivo
[1] = system: capsaicin-induced flinching behaviors; test: Capsaicin-induced acute pain (flinching) in rats; conditions: rat, acute dosing, 2.5 μg capsaicin into hind paw
Protocol: Rats were placed in individual observation cages. Following an acclimation period of 30 min, the test compound was administered. Two hours later, 2.5 μg of capsaicin in a 10 μL solution of 10% ethanol/90% hydroxypropyl-b-cyclodextrin was injected subcutaneously into the dorsal aspect of the right hind paw. The observation cage was then suspended above mirrors in order to facilitate observation of the rat. […] The number of flinching behaviors of the injured paw was recorded during the 5 minutes observation period. Compound A was dissolved in 100% polyethylene glycol (PEG 400) for oral administration in a 2 mL/kg injection volume. Compounds B, C, and D were dissolved in 10% ethanol, 20% Tween 80 and 70% polyethylene glycol-400 for oral administration in a 2 mL/kg injection volume. All compounds were dosed orally (p.o.) 60 minutes before behavioral testing.

[2] = system: MIA-induced osteoarthritic rats; test: Osteoarthritic pain model in rats (MIA), weight bearing difference; conditions: po, 96 h; rat, p.o., acute dosing, 4 days following MIA injection; read-out: ED50, reversal of difference in weight bearing
Protocol: Unilateral knee joint osteoarthritis was induced in the rats by a single intraarticular (i.a.) injection of sodium monoiodoacetate (MIA) (Sigma, St. Louis, Mo.) (3 mg in 0.05 mL sterile isotonic saline) into the joint cavity using a 26 G needle under light (2-4%) halothane (Halocarbon Laboratories, River Edge, N.J.) anesthesia [Bove S E, Calcaterra S L, Brooker R M, Huber C M, Guzman R E, Juneau P L, et al. Weight bearing as a measure of disease progression and efficacy of anti-inflammatory compounds in a model of monosodium iodoacetate-induced osteoarthritis. Osteoarthritis Cartilage 2003; 11:821-30]. […]
MIA-induced nociception can be assessed by measuring differences in weight bearing (WBD) or decrease in grip force (GF) several days to weeks following MIA injection [Bove S E, Calcaterra S L, Brooker R M, Huber C M, Guzman R E, Juneau P L, et al. Weight bearing as a measure of disease progression and efficacy of anti-inflammatory compounds in a model of monosodium iodoacetate-induced osteoarthritis. […]
Differences in weight bearing on the injured vs uninjured hind limb were assessed by placing the animals in an Incapacitance Tester (Linton, Stoelting, Wood Dale, Ill.). […] The animals were allowed to acclimate for approximately 30 s before weight-bearing readings (measured in grams) were recorded. […]

[3] = system: bone cancer pain, C3H/HeJ mice; test: Bone cancer pain model in mice (2472 sarcoma); conditions: mouse
Protocol: Male Sprague-Dawley rats (Charles River, Wilmington, Mass.) weighing 200-300 grams were utilized in most experiments. Animals were group housed in AAALAC approved facilities at Abbott Laboratories in a temperature-regulated environment with lights on between 0700 and 2000 h. Food and water were available ad libitum except during testing. All animal handling and experimental protocols were approved by an Institutional Animal Care and Use Committee (IACUC). All experiments were performed during the light cycle. The bone cancer pain experiments were performed on adult male C3H/HeJ mice (Jackson Laboratories, Bar Harbor, Me.), approximately 7-8 weeks old, weighing 25-30 g at the time of tumor cell injection. The mice were housed in accordance with National Institutes of Health Guidelines and kept in a vivarium maintained at 22° C. with a 12 h alternating light-dark cycle. They were given food and water ad libitum except during testing. All procedures were approved by the Institutional Animal Care and Use Committee at the University of Minnesota. All procedures also adhered to the guidelines of the Committee for Research and Ethical Issues of IASP published in PAIN, 16 (1983) 109-110.
An arthrotomy was performed following induction of general anesthesia with sodium pentobarbital (50 mg/kg, intraperitoneal (i.p.)). A needle was inserted into the intramedullary canal to create a pathway for the sarcoma cells. A depression was then made using a pneumatic dental high-speed hand-piece. Mice were injected with Hanks-buffered saline (HBSS) (20 μL, Sigma, St. Louis, Mo.) or HBSS containing the 2472 sarcoma line (ATCC, Rockville, Md., USA). The injection site was sealed with a dental amalgam plug to confine the cells within the intramedullary canal followed by irrigation with sterile water. […] Clips were removed at day 5 so as not to interfere with behavioral testing.
A variety of behavioral measurements was used to assess the extent of bone cancer pain as described previously [Schwei M J, Honore P, Rogers S D, Salak-Johnson J L, Finke M P, Ramnaraine M L, et al. Neurochemical and cellular reorganization of the spinal cord in a murine model of bone cancer pain. J Neurosci 1999; 19:10886-97]. All mice were tested and values obtained for behavioral responses before compound or vehicle administration, and then retested 1 hour following oral dosing. Percent effects were calculated as follows: (1−((Compound Value−Sham Value)/(Vehicle Value−Sham Value)))×100. The number of spontaneous guarding behaviors, representative of nociceptive behavior, was recorded during a 2 min observation period. Guarding was defined as the amount of time an animal held the hind paw aloft while not ambulatory. Mechanical allodynia at the knee joint was evaluated by normally non-noxious palpation of the distal femur every second for 2 min. Following the 2 min palpation, the mice were placed in the observation box and their palpation-induced guarding behavior was measured for an additional 2 min. Normal limb use during spontaneous ambulation in an open field was scored on a scale of 5-0: (5) normal use, (4) some limping, but not pronounced, (3) pronounced limp, (2) limp and guarding behavior, (1) partial non-use of limb, and (0) complete lack of limb use.
Compound A was dissolved in 100% polyethylene glycol (PEG 400) for oral administration in a 2 mL/kg injection volume. Compounds B, C, and D were dissolved in 10% ethanol, 20% Tween 80 and 70% polyethylene glycol-400 for oral administration in a 2 mL/kg injection volume. All compounds were dosed orally (p.o.) 60 minutes before behavioral testing.

[4] = 30 μmol/kg p.o., acute dosing, fifteen days following tumor cells inoculation

CC(C)(C)c1ccc2c(c1)CC[C@H]2NC(=O)Nc1cccc2[nH]ncc12 [Compound A, N-[(1R)-5-tert-butyl-2,3-dihydro-1H-inden-1-yl]-N′-1H-indazol-4-ylurea]
capsaicin-induced flinching behaviors [1]: dose-dependently prevented
ED50 [2]: 30 µmol/kg
reversal of spontaneous guarding ([3]; 10 μmol/kg p.o. twice-daily for 9 days): 45±3%
reversal of evoked pain induced by palpation of the cancerous limb (% effects) ([3]; 30 μmol/kg p.o., acute dosing): 65±4%
reversal of spontaneous guarding [3, 4]: 70±1%
reversal of the pain-induced decrease in ambulation [3, 4]: 85±15%
evoked pain induced by palpation of the cancerous limb, repeated vs single dosing ([3]; repeated dosing): Improved analgesic efficacy
effect on spontaneous ambulation ([3]; repeated dosing (10 μmol/kg p.o. twice-daily for 9 days)): 43±0%
analgesic effect on spontaneous ambulation ([3]; single dose 10 μmol/kg p.o.): 19±0%
analgesic effect on spontaneous guarding ([3]; single dose 10 μmol/kg p.o.): 18±6%
